Results filed as inconclusive are left out. Activity calls are given as the source filed them.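 How the source made its calls: active means fitted curve rises past 40% HDL binding increase at a concentration no higher than twice the top valid tested dose; inconclusive means no clear call, values can overlap the other calls; inactive means effects opposite to the expected rise, plus the rest.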

Sequence of Scavenger receptor class B member 1 (Mus musculus) (Q61009 whole entry, looked up): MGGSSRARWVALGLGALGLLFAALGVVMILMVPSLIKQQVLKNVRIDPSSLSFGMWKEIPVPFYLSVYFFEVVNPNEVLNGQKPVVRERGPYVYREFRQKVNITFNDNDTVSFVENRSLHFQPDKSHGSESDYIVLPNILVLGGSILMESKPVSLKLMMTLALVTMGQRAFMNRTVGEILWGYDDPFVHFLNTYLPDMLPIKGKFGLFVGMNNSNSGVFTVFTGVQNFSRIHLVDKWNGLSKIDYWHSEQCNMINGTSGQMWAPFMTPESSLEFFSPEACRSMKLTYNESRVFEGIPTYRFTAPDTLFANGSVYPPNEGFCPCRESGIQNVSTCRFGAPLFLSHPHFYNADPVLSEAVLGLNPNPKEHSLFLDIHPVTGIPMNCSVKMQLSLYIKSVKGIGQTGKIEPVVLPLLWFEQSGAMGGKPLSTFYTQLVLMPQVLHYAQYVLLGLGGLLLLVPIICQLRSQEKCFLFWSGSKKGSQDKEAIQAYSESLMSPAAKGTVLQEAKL

One assay has as its target Scavenger receptor class B member 1 (Mus musculus) (UniProt Q61009). The experiment in a line: SR-BI HDL particle binding change, fluorescent HDL – cell-based, ldlA[mSR-BI] CHO, Alexa 488-HDL, powder samples, set 3, orthogonal assay for SR-BI HDL uptake inhibitor project, dose response (AID 624024). Particulars: ldlA[mSR-BI] CHO cells, Alexa488-HDL binding fluorescence, 3 h.
Turning to `C[C@@H]1CN([C@H](C)CO[Si](C)(C)C(C)(C)C)C(=O)c2cc(NC(=O)C3CCCCC3)ccc2O[C@H]1CN(C)C(=O)c1ccc(Cl)cc1`, the AC40 was 6.33 µM.
The same measure, in the same setting: then `CC(C)NC(=O)Nc1cccc2c1O[C@@H](CN(C)S(=O)(=O)c1ccc(Cl)cc1)[C@H](C)CN([C@H](C)CO)C2=O`, with 0.544 µM.
With `CC(C)(C)OC(=O)N1CCN(c2ccc(NC(=O)c3cc([N+](=O)[O-])ccc3Cl)cc2)CC1`, the AC40 is 0.155 µM.
As to `C[C@@H]1CN([C@H](C)CO)C(=O)c2cc(NC(=O)Cc3cn(C)c4ccccc34)ccc2O[C@H]1CN(C)S(=O)(=O)c1ccc(F)cc1`, the AC40 is 0.00176 µM.
`CC(C)CN(C(=O)COC(=O)C12CC3CC(CC(O)(C3)C1)C2)C1CCS(=O)(=O)C1` (configuration not stated): the AC40 is 0.772 µM.
The same measure, in the same setting: then `CC(C)NC(=O)Nc1ccc2c(c1)C(=O)N([C@H](C)CO)C[C@@H](C)[C@@H](CN(C)S(=O)(=O)c1ccc(Cl)cc1)O2`, with 3.69 µM; and `COc1c(NC(=O)C(=O)c2ccc(OCCN3CCOCC3)c3ccccc23)cc(C(C)(C)C)cc1NS(C)(=O)=O`, with 0.218 µM.
On the same count and under the same terms, then `C[C@@H]1CN([C@H](C)CO)C(=O)c2cc(NC(=O)C3CCCCC3)ccc2O[C@H]1CN(C)C(=O)c1ccc(Cl)cc1`, with 17.5 µM; and `C=CCOC(=O)N(C)C[C@@H]1Oc2ccc(N)cc2C(=O)N([C@H](C)CO[Si](C)(C)C(C)(C)C)C[C@H]1C`, with 3.76 µM; and `Cc1noc(C)c1S(=O)(=O)Nc1ccc2c(c1)C(=O)N([C@H](C)CO)C[C@@H](C)[C@H](CN(C)S(=O)(=O)c1ccc(Cl)cc1)O2`, with 0.138 µM.
Turning to `CC(=O)Nc1ccc(Cl)c(C(=O)Nc2ccc(N3CCN(C(=O)OC(C)(C)C)CC3)cc2)c1`, the AC40 was 0.0166 µM.
With `CC(C)NC(=O)Nc1ccc2c(c1)C(=O)N([C@@H](C)CO)C[C@@H](C)[C@H](CN(C)S(=O)(=O)c1ccc(Cl)cc1)O2`, the AC40 was 0.0203 µM.
Same read-out and setting: then `CC(C)NC(=O)Nc1ccc2c(c1)C(=O)N([C@@H](C)CO)C[C@H](C)[C@H](CN(C)S(=O)(=O)c1ccc(Cl)cc1)O2`, with 0.0121 µM; and `C[C@@H]1CN([C@H](C)CO)C(=O)c2cc(NC(=O)C3CCCCC3)ccc2O[C@H]1CN(C)S(=O)(=O)c1ccccc1Cl`, with 0.222 µM.
For `C[C@H](C(=O)NC1CCCC1)N(C(=O)Cn1nnc(-c2ccc3c(c2)OCO3)n1)C1CCCCC1`, the AC40 was 0.0167 µM.
For `C[C@@H]1CN([C@H](C)CO)C(=O)c2cc(NC(=O)Nc3ccc(F)cc3)ccc2O[C@H]1CN(C)S(=O)(=O)c1ccc(Cl)cc1`, the AC40 was 0.0332 µM.
Same read-out and setting: then `C=CCOC(=O)N(C)C[C@@H]1Oc2ccc(NC(=O)OCC3c4ccccc4-c4ccccc43)cc2C(=O)N([C@H](C)CO)C[C@H]1C`, with 1.87 µM.
Same read-out and setting: the figure for `C[C@@H]1CN([C@H](C)CO)C(=O)c2cc(NC(=O)C3CCOCC3)ccc2O[C@H]1CN(C)S(=O)(=O)c1ccc(Cl)cc1` is 1.97 µM; for `C[C@@H]1CN([C@H](C)CO)C(=O)c2cc(NC(=O)C3CCCCC3)ccc2O[C@H]1CN(C)S(=O)(=O)c1ccc(Cl)cc1` it is 0.0332 µM.
On to `C[C@@H]1CN([C@H](C)CO)C(=O)c2cc(NC(=O)Cc3cn(C)c4ccccc34)ccc2O[C@H]1CN(C)S(=O)(=O)c1ccc(Cl)cc1`, for which the AC40 is 0.00461 µM.
For the compound `CCOc1cc2c3c(c1)C1(C(=O)N3C(C)(C)CC2C)C(C#N)=C(N)N2C(=C1C#N)Nc1ccccc12` (configuration not stated), the AC40 was 3.67 µM.
Same read-out and setting: the figure for `CNC[C@@H]1Oc2ccc(NC(=O)NC(C)C)cc2C(=O)N([C@H](C)CO[Si](C)(C)C(C)(C)C)C[C@H]1C` is 3.38 µM; for `C[C@@H]1CN([C@H](C)CO)C(=O)c2cc(NC(=O)C3CCCCC3)ccc2O[C@H]1CN(C)S(=O)(=O)c1cccc(Cl)c1` it is 3.04 µM; for `CCCCCCC1CCC/C1=N\NC(N)=S` (configuration not stated) it is 0.00272 µM.
On the same count and under the same terms, then `COCC(=O)N1CCc2cc(-c3csc(NC(=O)c4cc(OC)cc(OC)c4)n3)ccc21`, with 0.0199 µM.
Consider `CC(C)NC(=O)Nc1ccc2c(c1)C(=O)N([C@@H](C)CO)C[C@@H](C)[C@@H](CN(C)S(=O)(=O)c1ccc(Cl)cc1)O2`, for which the AC40 was 0.0576 µM.
For `CC(C)NC(=O)Nc1ccc2c(c1)C(=O)N([C@@H](C)CO)C[C@H](C)[C@@H](CN(C)S(=O)(=O)c1ccc(Cl)cc1)O2`, the AC40 was 0.671 µM.

The assay is the same for the next values; noted with them: ldlA[mSR-BI] CHO cells, Alexa488-HDL binding fluorescence, 3 h; at 35 µM (top of the series).
For `C=CCOC(=O)N(C)C[C@@H]1Oc2ccc(NC(=O)NC(C)C)cc2C(=O)N([C@H](C)CO[Si](C)(C)C(C)(C)C)C[C@H]1C`, the HDL binding change, positive = increase is 90.1% (inactive).
Same read-out and setting: the figure for `O=C(O)CC(C(=O)Nc1cccc(C(F)(F)F)c1)C1CCCO1` (configuration not stated) is 64.3% (inactive); for `Cc1ccc(OCc2cc(C(=O)N3CCCC(O)C3)no2)cn1` (configuration not stated) it is 36% (inactive).
For the compound `O=C1C2C3C=CC(C3)C2C(=O)N1c1cccc(N2C(=O)C3C4C=CC(C4)C3C2=O)n1` (configuration not stated), the HDL binding change, positive = increase is 4.51% (inactive).
On the same count and under the same terms, then `COc1ccc2c(c1)CC(C1(O)C(=O)N(C)c3ccccc31)C2=O` (configuration not stated), with 37.2% (inactive).

The record behind these values is PubChem BioAssay AID624024 (Broad Institute, 2012).
